This test has as its target T1, canine TRPM8 (Canis lupus familiaris, UniProt Q1A7N1).
T1 construct: expressed in transfected cells
Description: In vitro canine TRPM8 functional assay (Ca2+-sensitive fluorescent dye, FLIPR or FDSS, icilin challenge). The following applies: HEK293 cells stably expressing canine TRPM8; for inhibition at 0.2 µM: 0.2 μM compound, icilin challenge; for IC50: icilin at approx. 80% maximal response, eight-point dose-response, single determinations unless otherwise noted, read-out: IC50. It is filed as cell-based. As to the method: The functional activity of compounds of the formula (I) was determined by measuring changes in intracellular calcium concentration using a Ca^2+-sensitive fluorescent dye. The changes in fluorescent signal were monitored by a fluorescence plate reader, either a FLIPR™ (Molecular Devices) or FDSS (Hamamatsu).
At 24 hrs prior to assay, HEK293 cells stably expressing canine TRPM8 were seeded in culture medium in black wall, clear-base poly-D-lysine coated 384-well plates (BD Biosciences, NJ, USA) and grown overnight in 5% CO2 at 37° C. On assay day, growth media was removed and cells were loaded with Calcium 3 Dye (Molecular Devices) for 35 min at 37° C., under 5% CO2 and then for 25 min at room temperature and atmosphere. Subsequently, cells were tested for agonist-induced increases in intracellular Ca^2+ levels using FLIPR™ or FDSS. Cells were challenged with a compound of the Formula (I) (at varying concentrations) and intracellular Ca^2+ was measured for 5 min prior to the addition of icilin to all wells to achieve a final concentration that produces approximately an 80% maximal response. EC50 or IC50 values for compounds of the present invention were determined from eight-point dose-response studies. Curves were generated using the average of quadruplicate wells for each data point.

By inhibition is commonly meant the change of the read-out against control, counted positive when it falls. For orientation: IC50 means the midpoint of a concentration-inhibition curve.

T1 sequence (Q1A7N1 1-1104): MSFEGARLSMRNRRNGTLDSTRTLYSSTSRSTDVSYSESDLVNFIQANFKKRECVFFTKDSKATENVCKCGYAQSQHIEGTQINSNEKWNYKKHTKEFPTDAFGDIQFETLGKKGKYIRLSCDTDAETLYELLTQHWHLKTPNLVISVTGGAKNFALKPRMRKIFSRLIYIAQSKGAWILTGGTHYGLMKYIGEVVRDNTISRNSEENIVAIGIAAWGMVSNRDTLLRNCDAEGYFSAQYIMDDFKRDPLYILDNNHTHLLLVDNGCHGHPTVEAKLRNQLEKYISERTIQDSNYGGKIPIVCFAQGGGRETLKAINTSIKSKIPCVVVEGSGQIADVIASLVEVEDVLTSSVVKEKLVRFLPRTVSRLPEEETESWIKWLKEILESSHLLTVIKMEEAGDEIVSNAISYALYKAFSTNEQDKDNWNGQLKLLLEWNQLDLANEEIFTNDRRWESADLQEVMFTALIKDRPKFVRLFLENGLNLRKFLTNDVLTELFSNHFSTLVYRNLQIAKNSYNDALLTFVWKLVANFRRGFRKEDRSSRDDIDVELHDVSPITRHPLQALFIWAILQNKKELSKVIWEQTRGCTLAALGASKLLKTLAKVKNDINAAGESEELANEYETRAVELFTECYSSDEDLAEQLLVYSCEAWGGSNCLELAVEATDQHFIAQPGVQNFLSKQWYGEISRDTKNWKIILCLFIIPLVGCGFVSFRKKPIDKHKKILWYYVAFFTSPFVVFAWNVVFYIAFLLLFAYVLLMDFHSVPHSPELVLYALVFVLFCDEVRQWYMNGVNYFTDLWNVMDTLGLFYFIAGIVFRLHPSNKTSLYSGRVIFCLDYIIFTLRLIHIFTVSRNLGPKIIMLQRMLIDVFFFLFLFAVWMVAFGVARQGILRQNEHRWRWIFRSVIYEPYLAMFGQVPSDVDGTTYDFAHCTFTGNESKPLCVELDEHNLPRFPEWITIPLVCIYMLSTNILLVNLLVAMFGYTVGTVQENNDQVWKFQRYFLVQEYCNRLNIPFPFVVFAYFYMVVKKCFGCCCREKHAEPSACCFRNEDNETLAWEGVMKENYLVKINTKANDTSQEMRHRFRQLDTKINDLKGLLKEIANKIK

On to `Cc1c(N(Cc2ccc(OC(F)(F)F)cc2)S(=O)(=O)CCN2CCc3ccccc3C2)sc2ccccc12` [Cpd 40, N-(3-Methylbenzo[b]thiophen-2-yl)-N-(4-trifluoromethoxy-benzyl)-2-(1,2,3,4-tetrahydro-isoquinolin-2-yl)ethylsulfonamide], for which the inhibition at 0.2 µM was found to be 100% and the IC50 came out at 29 nM.

With `Cc1c(N(Cc2ccc(OC(F)(F)F)cc2)S(=O)(=O)CCN2CCC(F)(F)CC2)sc2ccccc12` [Cpd 42, N-(3-Methylbenzo[b]thiophen-2-yl)-N-(4-trifluoromethoxy-benzyl)-2-(4,4-difluoropiperidin-1-yl)ethylsulfonamide], the inhibition at 0.2 µM came to 98% and the IC50 is 17 nM.

As to `Cc1c(N(Cc2ccc(OC(F)(F)F)cc2)S(=O)(=O)CCN2CCC2)sc2ccccc12` [Cpd 39, N-(3-Methylbenzo[b]thiophen-2-yl)-N-(4-trifluoromethoxy-benzyl)-2-(azetidin-1-yl)ethylsulfonamide], the inhibition at 0.2 µM was 80% and the IC50 was 113 nM.

For the compound `Cc1c(N(Cc2ccc(F)cc2)S(=O)(=O)CCN(C)Cc2ccccc2)sc2ccccc12` [Cpd 77, N-(3-Methylbenzo[b]thiophen-2-yl)-N-(4-fluoro-benzyl)-2-(benzyl-methylamino)ethylsulfonamide], the inhibition at 0.2 µM came out at 97% and the IC50 is 49 nM.

Take `CCCN(CCS(=O)(=O)N(CCC1CC1)c1sc2ccccc2c1C)CC(C)C` [Cpd 95, N-(3-Methylbenzo[b]thiophen-2-yl)-N-(2-cyclopropyl-ethyl)-2-(n-propyl-isobutylamino)ethylsulfonamide]: the inhibition at 0.2 µM turned out to be 103% and the IC50 was 23 nM.

In the case of `Cc1c(N(Cc2ccc(OC(F)(F)F)cc2)S(=O)(=O)CCN2CCC(F)(F)C2)sc2ccccc12` [Cpd 45, N-(3-Methylbenzo[b]thiophen-2-yl)-N-(4-trifluoromethoxy-benzyl)-2-(3,3-difluoropyrrolidin-1-yl)ethylsulfonamide], the inhibition at 0.2 µM was 99% and the IC50 came to 9 nM.

On to `Cc1c(N(CCCCC(F)(F)F)S(=O)(=O)CCN(C)Cc2ccccc2)sc2ccccc12` [Cpd 79, N-(3-Methylbenzo[b]thiophen-2-yl)-N-(5,5,5-trifluoro-n-pent-1-yl)-2-(benzyl-methylamino)ethylsulfonamide], for which the inhibition at 0.2 µM turned out to be 98% and the IC50 came to 37 nM.

Regarding `CCCCN(CCCC)CCS(=O)(=O)N(Cc1ccc(OC(F)(F)F)cc1)c1ccc2ccccc2c1` [Cpd 56, N-(Naphth-2-yl)-N-(4-trifluoromethoxy-benzyl)-2-(dibutylamino)ethylsulfonamide], the inhibition at 0.2 µM turned out to be 47%.

In the case of `Cc1c(N(Cc2ccc(F)cc2)S(=O)(=O)CCN(CC(C)C)CC(C)C)sc2ccccc12` [Cpd 76, N-(3-Methylbenzo[b]thiophen-2-yl)-N-(4-fluoro-benzyl)-2-(di-iso-butylamino)ethylsulfonamide], the inhibition at 0.2 µM amounted to 99% and the IC50 amounted to 25 nM.

Turning to `CC(=O)N1CCN(CCS(=O)(=O)N(Cc2ccc(OC(F)(F)F)cc2)c2sc3ccccc3c2Br)CC1` [Cpd 65, N-(3-Bromobenzo[b]thiophen-2-yl)-N-(4-trifluoromethoxy-benzyl)-2-(4-acetyl-1-piperazinyl)ethylsulfonamide], the inhibition at 0.2 µM was 101% and the IC50 came to 41 nM.

On to `Cc1c(N(Cc2ccc(OC(F)(F)F)cc2)S(=O)(=O)CCN2CCC[C@@H]2C(F)(F)F)sc2ccccc12` [Cpd 72, N-(3-Methylbenzo[b]thiophen-2-yl)-N-(4-trifluoromethoxy-benzyl)-2-[2(R)-trifluoromethyl-pyrrolidin-1-yl]ethylsulfonamide], for which the inhibition at 0.2 µM came to 100% and the IC50 is 10 nM.

Turning to `Cc1c(N(Cc2ccc(OC(F)(F)F)cc2)S(=O)(=O)CCN2[C@H](C)CCC[C@@H]2C)sc2ccccc12` [Cpd 22, N-(3-Methylbenzo[b]thiophen-2-yl)-N-(4-trifluoromethoxy-benzyl)-2-(cis-2,6-dimethylpiperidin-1-yl)ethylsulfonamide], the inhibition at 0.2 µM was 99% and the IC50 came to 13 nM.

With `Cc1c(N(Cc2ccc(OC(F)(F)F)cc2)S(=O)(=O)CCN(C)C)sc2ccccc12` [Cpd 49, N-(3-Methylbenzo[b]thiophen-2-yl)-N-(4-trifluoromethoxy-benzyl)-2-(dimethylamino)ethylsulfonamide], the inhibition at 0.2 µM is 65%.

For the compound `CCCN(CCC)CCS(=O)(=O)N(Cc1ccc(OC(F)(F)F)cc1)c1ccc2ccccc2c1` [Cpd 50, N-(Naphth-2-yl)-N-(4-trifluoromethoxy-benzyl)-2-(di-propylamino)ethylsulfonamide], the inhibition at 0.2 µM came out at 62%.

Turning to `Cc1c(N(Cc2ccc(OC(F)(F)F)cc2)S(=O)(=O)CCN2CCCCC2)sc2ccccc12` [Cpd 18, N-(3-Methylbenzo[b]thiophen-2-yl)-N-(4-trifluoromethoxy-benzyl)-2-(piperidin-1-yl)ethylsulfonamide], the inhibition at 0.2 µM stood at 99% and the IC50 came out at 26 nM.

For `Cc1c(N(CCC2CC2)S(=O)(=O)CCN(C)Cc2ccccc2)sc2ccccc12` [Cpd 75, N-(3-Methylbenzo[b]thiophen-2-yl)-N-(2-cyclopropyl-ethyl)-2-(benzyl-methylamino)ethylsulfonamide], the inhibition at 0.2 µM was found to be 89% and the concentration for half-maximal inhibition (IC50) was 59 nM.

For `O=S(=O)(CCN1CC(F)(F)C1)N(Cc1ccc(OC(F)(F)F)cc1)c1ccc2ccccc2c1` [Cpd 55, N-(Naphth-2-yl)-N-(4-trifluoromethoxy-benzyl)-2-(3,3-difluoroazetidin-1-yl)ethylsulfonamide], the inhibition at 0.2 µM worked out at 84% and the IC50 came to 109 nM.

On to `Cc1c(N(Cc2ccc(OC(F)(F)F)cc2)S(=O)(=O)CCN2CCC(O)C2)sc2ccccc12` (centres unmarked) [Cpd 38, N-(3-Methylbenzo[b]thiophen-2-yl)-N-(4-trifluoromethoxy-benzyl)-2-(3-hydroxypyrrolidin-1-yl)ethylsulfonamide], for which the inhibition at 0.2 µM is 99% and the IC50 stood at 30 nM.

Regarding `CCOC(=O)C1CCN(CCS(=O)(=O)N(Cc2ccc(OC(F)(F)F)cc2)c2sc3ccccc3c2C)CC1` [Cpd 41, N-(3-Methylbenzo[b]thiophen-2-yl)-N-(4-trifluoromethoxy-benzyl)-2-(4-carboethoxypiperidin-1-yl)ethylsulfonamide], the inhibition at 0.2 µM was found to be 99% and the IC50 is 16 nM.

Regarding `CCC(=O)N(CCS(=O)(=O)N(CCCCC(F)(F)F)c1sc2ccccc2c1C)CC(C)C` [Cpd 90, N-(3-Methylbenzo[b]thiophen-2-yl)-N-(5,5,5-trifluoro-n-pent-1-yl)-2-(N-propionoyl-isobutylamino)ethylsulfonamide], the inhibition at 0.2 µM was found to be 92% and the IC50 is 44 nM.

Consider `Cc1c(N(Cc2ccc(OC(F)(F)F)cc2)S(=O)(=O)CCN(C)C(C)C)sc2ccccc12` [Cpd 8, N-(3-Methylbenzo[b]thiophen-2-yl)-N-(4-trifluoromethoxy-benzyl)-2-(methyl-isopropylamino)ethylsulfonamide], for which the inhibition at 0.2 µM was 94% and the IC50 amounted to 50 nM.

Consider `O=S(=O)(CCN1CCOCC1)N(Cc1ccc(OC(F)(F)F)cc1)c1ccc2ccccc2c1` [Cpd 51, N-(Naphth-2-yl)-N-(4-trifluoromethoxy-benzyl)-2-(morpholin-4-yl)ethylsulfonamide], for which the inhibition at 0.2 µM amounted to 87% and the IC50 was determined as 28 nM.

Regarding `CCCCN(CCCC)CCS(=O)(=O)N(Cc1ccc(OC(F)(F)F)cc1)c1sc2ccccc2c1Br` [Cpd 62, N-(3-Bromobenzo[b]thiophen-2-yl)-N-(4-trifluoromethoxy-benzyl)-2-(di-n-butylamino)ethylsulfonamide], the inhibition at 0.2 µM stood at 96% and the IC50 turned out to be 38 nM.

For `Cc1c(N(Cc2ccc(OC(F)(F)F)cc2)S(=O)(=O)CCN2CCCC(C(F)(F)F)C2)sc2ccccc12` (centres unmarked) [Cpd 24, N-(3-Methylbenzo[b]thiophen-2-yl)-N-(4-trifluoromethoxy-benzyl)-2-(3-trifluoromethylpiperidin-1-yl)ethylsulfonamide], the inhibition at 0.2 µM is 99% and the IC50 was 27 nM.

`Cc1c(N(Cc2ccc(OC(F)(F)F)cc2)S(=O)(=O)CCN(C)CCc2ccccc2)sc2ccccc12` [Cpd 17, N-(3-Methylbenzo[b]thiophen-2-yl)-N-(4-trifluoromethoxy-benzyl)-2-(methyl-2-phenylethylamino)ethylsulfonamide]: the inhibition at 0.2 µM stood at 98% and the IC50 is 22 nM.

For the compound `CCCCN(C)CCS(=O)(=O)N(Cc1ccc(OC(F)(F)F)cc1)c1sc2ccccc2c1C` [Cpd 12, N-(3-Methylbenzo[b]thiophen-2-yl)-N-(4-trifluoromethoxy-benzyl)-2-(methyl-butylamino)ethylsulfonamide], the inhibition at 0.2 µM worked out at 96% and the IC50 stood at 43 nM.

With `Cc1c(N(Cc2ccc(OC(F)(F)F)cc2)S(=O)(=O)CCN2CCNCC2)sc2ccccc12` [Cpd 26, N-(3-Methylbenzo[b]thiophen-2-yl)-N-(4-trifluoromethoxy-benzyl)-2-(piperazin-1-yl)ethylsulfonamide], the inhibition at 0.2 µM is 23%.

(Values after patent US8148422B2, “Sulfonamides as TRPM8 modulators” (Janssen Pharmaceutica, NV, priority 2008, dated 2012).)
